Test results as given in patent publication US5851782A, “Inhibitors of ceramidase” (Duke University, priority 1996, dated 1998).

What was measured:
β-glucosidase = molecular target: T1, β-glucosidase (Homo sapiens, UniProt P04062); assay: Glucocerebrosidase assay in vitro; format: biochemical
T1 sequence (P04062 40-536): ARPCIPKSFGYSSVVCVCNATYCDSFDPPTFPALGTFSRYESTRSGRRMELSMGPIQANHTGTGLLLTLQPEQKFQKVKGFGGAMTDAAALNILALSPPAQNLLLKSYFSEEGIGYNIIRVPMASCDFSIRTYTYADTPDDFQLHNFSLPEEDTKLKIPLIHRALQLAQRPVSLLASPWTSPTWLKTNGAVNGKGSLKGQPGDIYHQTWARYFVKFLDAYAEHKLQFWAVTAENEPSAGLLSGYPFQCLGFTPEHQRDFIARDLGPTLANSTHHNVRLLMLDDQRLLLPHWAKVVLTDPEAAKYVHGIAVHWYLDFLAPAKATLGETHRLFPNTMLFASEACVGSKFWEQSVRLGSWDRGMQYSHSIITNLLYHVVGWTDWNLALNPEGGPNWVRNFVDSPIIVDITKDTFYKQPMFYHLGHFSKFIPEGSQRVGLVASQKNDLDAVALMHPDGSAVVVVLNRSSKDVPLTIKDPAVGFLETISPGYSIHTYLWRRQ
Method: Glucocerebrosidase and glucocerebroside synthase assays. In vitro assays for gluccerebrosidase and for cerebroside synthase were performed as described (Abe et al, J. Biochem. (Tokyo) 11:191 (1992)).
(§1) In addition to ceramidase, inhibition of cerebroside synthase and sphingomyelin synthase or stimulation of sphingomyelinase or cerebrosidase could result in elevations in endogenous ceramide levels. Therefore, the effects of D- and L-e-MAPP were examined on these enzyme activities in vitro and in cells.

neutral sphingomyelinase = assay: Neutral sphingomyelinase activity in vitro; format: biochemical
From the text: as §1

HL-60 cells = assay: Uptake of tritium-labeled compounds by HL-60 cells; format: cell-based, human; details: for partitioning of label taken up into lipid organic phase: HL-60, 0-72 h, 5 to 30 μM; for uptake by cells: 24 hr
Method: Uptake and metabolism studies. HL-60 cells were grown as described and treated with ^3 H-labeled compounds at concentrations ranging from 0 to 10 μM. At the indicated time points, cell pellets were separated from media and ^3 H radioactivity was counted.
(§2) Studies were conducted examining the uptake and metabolism of D- and L-MAPP. In the first set of studies, the effect of duration of exposure of HL-60 cells to D-e-MAPP on the bioactivity of the molecule was determined. D-e-MAPP added to cells could be washed off by repeated sedimentation and washing of cells. Thus, after five cycles of washing, less than 10% of D-MAPP remained associated with the cell pellet-compared to unwashed cells (FIG. 5A).
Next, the uptake of tritium-labeled D- and L-e-MAPP was examined. To this end, D- and L-e-MAPP labeled in the N-myristoyl group were synthesized and used for uptake and metabolism studies. […] At 24 hr, approximately 20% of D-e-MAPP (5 μM) and 26% of L-e-MAPP (5 μM) were taken up by cells.
The partitioning of the label taken up by cells into the lipid organic phase was evaluated next.

[1] = system: HL-60 human myelocytic leukemia cells; assay: HL-60 cell proliferation (cell counting); format: cell-based; details: for effect on cell growth: HL-60 cells, 5 μM, time course
Method: Proliferation and cell cycle studies. HL-60 human myelocytic leukemia cells (obtained from the American Type Culture Collection) were grown in RPMI 1640 medium containing 10 fetal calf serum at 37° C. in 5% CO2 incubator. For proliferation and cell cycle studies, cells were resuspended at a density of 2×10^5 cells/ml in serum-free media containing insulin (5 mg/liter) and transferrin (5 mg/liter) and sodium selenite (5 μg/liter) for 2-4 h. Cells were then treated with the indicated compounds. Ethanol concentration was always maintained at less than 0.1%. Cell proliferation was determined by counting cells using a hemacytometer, cell viability was evaluated by trypan blue dye exclusion, and cell cycle analysis was determined by propidium iodide flow cytometry as described (Chao et al, J. Biol. Chem. 267:23459 (1992)).
In structure-function analysis of ceramide-mediated growth suppression using amides of phenylaminoalcohols, D- and L-erythro-MAPP were employed. In these studies, HL-60 cells were treated with 5 μM of either D-e-MAPP or L-e-MAPP, and growth was determined at the indicated time points (FIG. 2A).
as §2

[2] = system: endogenous levels of sphingomyelin; assay: Endogenous sphingomyelin levels in cells; format: cell-based
From the text: as §1

acidic sphingomyelinase = molecular target: T2, acidic sphingomyelinase (Homo sapiens, UniProt P17405); assay: Acidic sphingomyelinase activity in vitro; format: biochemical
T2 sequence (P17405 47-631): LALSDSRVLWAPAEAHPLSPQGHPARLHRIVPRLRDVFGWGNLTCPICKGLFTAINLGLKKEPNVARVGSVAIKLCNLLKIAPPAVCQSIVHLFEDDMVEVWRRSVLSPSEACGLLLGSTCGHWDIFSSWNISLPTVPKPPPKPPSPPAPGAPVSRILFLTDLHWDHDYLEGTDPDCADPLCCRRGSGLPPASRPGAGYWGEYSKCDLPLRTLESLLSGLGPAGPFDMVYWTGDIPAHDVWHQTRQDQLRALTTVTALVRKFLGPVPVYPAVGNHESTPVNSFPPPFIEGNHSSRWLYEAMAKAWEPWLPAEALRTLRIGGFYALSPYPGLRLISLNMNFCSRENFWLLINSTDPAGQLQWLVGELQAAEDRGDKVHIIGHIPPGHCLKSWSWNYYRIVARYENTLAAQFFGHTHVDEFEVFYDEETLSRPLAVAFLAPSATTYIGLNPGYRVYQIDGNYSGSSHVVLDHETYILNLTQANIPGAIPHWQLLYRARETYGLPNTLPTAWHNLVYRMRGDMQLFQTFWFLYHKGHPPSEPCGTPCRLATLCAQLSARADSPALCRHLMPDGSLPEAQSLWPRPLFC
From the text: as §1

Row | SMILES | effect on activity of β-glucosidase (β-glucosidase) | effect on activity of neutral sphingomyelinase (neutral sphingomyelinase) | partitioning of label taken up into lipid organic phase (HL-60 cells) | uptake by cells (HL-60 cells; HL-60, 5 μM) | compound remaining associated with the cell pellet after washing (HL-60 cells; HL-60, 5 μM, five cycles of washing, compared to unwashed cells) | effect on cell growth, exposure for only 15 min ([1]; HL-60, 5 μM, back-extracted with 5 washes after 15 min) | effect on cell growth, continuous exposure ([1]; HL-60, 5 μM, compared to vehicle-treated cells) | effect on cell growth [1] | effect on endogenous levels of sphingomyelin [2] | effect on activity of acidic sphingomyelinase (acidic sphingomyelinase)
1 | CCCCCCCCCCCCCC(=O)N[C@H](C)[C@@H](O)c1ccccc1 [D-e-MAPP, D-erythro-2-(N-myristolyamino)-1-phenyl-1-propanol] | did not activate or modulate | neither D- nor L-e-MAPP modulated the activity of neutral or acidic sphingomyelinases | majority of the label in D-e-MAPP or L-e-MAPP remained associated with the organic phase | approximately 20% | less than 10% | did not affect cell growth | dramatic growth inhibition | time dependent suppression of growth | neither D- nor L-e-MAPP modulated the endogenous levels of sphingomyelin | neither D- nor L-e-MAPP modulated the activity of neutral or acidic sphingomyelinases
2 | CCCCCCCCCCCCCC(=O)N[C@@H](C)[C@H](O)c1ccccc1 [L-e-MAPP, L-erythro-2-(N-myristolyamino)-1-phenyl-1-propanol] | did not activate or modulate | neither D- nor L-e-MAPP modulated the activity of neutral or acidic sphingomyelinases | majority of the label in D-e-MAPP or L-e-MAPP remained associated with the organic phase | ~26% |  |  |  | largely inactive | neither D- nor L-e-MAPP modulated the endogenous levels of sphingomyelin | neither D- nor L-e-MAPP modulated the activity of neutral or acidic sphingomyelinases
